Results as given in paper PMC3420359 (Journal of computer-aided molecular design, 2011).

Experiments:
rTRPV1 WT = rTRPV1 WT (Rattus norvegicus, UniProt O35433); experiment: biochemical; format: binding
rTRPV1 Y511F = rTRPV1 Y511F (Rattus norvegicus, UniProt O35433, Y511F); experiment: biochemical; format: binding
rTRPV1 M547L = rTRPV1 M547L (Rattus norvegicus, UniProt O35433, M547L); experiment: biochemical; format: binding
rTRPV1 T550I = rTRPV1 T550I (Rattus norvegicus, UniProt O35433, T550I); experiment: biochemical; format: binding
rTRPV1 T550S = rTRPV1 T550S (Rattus norvegicus, UniProt O35433, T550S); experiment: biochemical; format: binding
rTRPV1 T550A = rTRPV1 T550A (Rattus norvegicus, UniProt O35433, T550A); experiment: biochemical; format: binding
TRPV1 = conditions: cited from earlier work

rTRPV1 WT, sequence (O35433 whole entry): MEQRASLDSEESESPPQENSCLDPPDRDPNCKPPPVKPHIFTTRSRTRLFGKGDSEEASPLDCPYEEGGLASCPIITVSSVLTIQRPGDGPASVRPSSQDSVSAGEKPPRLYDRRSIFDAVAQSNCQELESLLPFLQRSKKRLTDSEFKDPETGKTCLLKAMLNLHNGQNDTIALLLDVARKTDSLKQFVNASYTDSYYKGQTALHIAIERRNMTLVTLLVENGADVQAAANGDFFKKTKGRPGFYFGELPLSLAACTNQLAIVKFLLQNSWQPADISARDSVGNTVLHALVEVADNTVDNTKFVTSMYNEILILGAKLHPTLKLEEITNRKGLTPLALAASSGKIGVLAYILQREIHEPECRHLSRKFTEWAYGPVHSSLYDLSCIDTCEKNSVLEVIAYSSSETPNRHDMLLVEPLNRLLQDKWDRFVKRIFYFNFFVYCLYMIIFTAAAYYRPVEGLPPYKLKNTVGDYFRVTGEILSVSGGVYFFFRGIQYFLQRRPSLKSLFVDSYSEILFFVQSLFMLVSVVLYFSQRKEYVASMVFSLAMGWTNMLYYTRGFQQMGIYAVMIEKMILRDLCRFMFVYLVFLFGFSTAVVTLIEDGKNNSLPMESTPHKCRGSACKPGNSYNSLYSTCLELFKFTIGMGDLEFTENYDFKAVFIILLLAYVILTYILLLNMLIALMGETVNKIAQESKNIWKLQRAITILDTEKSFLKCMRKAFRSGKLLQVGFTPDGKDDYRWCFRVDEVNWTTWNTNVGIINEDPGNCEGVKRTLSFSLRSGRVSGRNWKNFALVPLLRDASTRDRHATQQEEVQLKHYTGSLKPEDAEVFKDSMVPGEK
rTRPV1 Y511F, sequence (O35433 whole entry Y511F): as the sequence (O35433 whole entry) above, with Y511F counted along it
rTRPV1 T550A, sequence (O35433 whole entry T550A): as the sequence (O35433 whole entry) above, with T550A counted along it
rTRPV1 T550I, sequence (O35433 whole entry T550I): as the sequence (O35433 whole entry) above, with T550I counted along it
rTRPV1 M547L, sequence (O35433 whole entry M547L): as the sequence (O35433 whole entry) above, with M547L counted along it
rTRPV1 T550S, sequence (O35433 whole entry T550S): as the sequence (O35433 whole entry) above, with T550S counted along it

Row | Compound | Kd (rTRPV1 WT) | Maximal binding capacity (rTRPV1 WT) | Ratio (rTRPV1 WT) | Kd (rTRPV1 Y511F) | Kd (rTRPV1 M547L) | Kd (rTRPV1 T550I) | Kd (rTRPV1 T550S) | Kd (rTRPV1 T550A) | Ki (TRPV1)
1 | C=C(C)[C@]12C[C@@H](C)[C@@]34O[C@](Cc5ccccc5)(O[C@@H]1[C@@H]3C=C(COC(=O)Cc1ccc(O)c(OC)c1)C[C@]1(O)C(=O)C(C)=C[C@@H]41)O2 [RTX, resiniferatoxin] | 0.203 ± 0.02 nM | 6400 fmol/mg protein | 1.0 | 0.79 ± 0.13 nM | 2.38 ± 0.24 nM | 4.16 ± 0.82 nM | 0.233 ± 0.022 nM | 0.417 ± 0.062 nM | –
2 | COc1cc(CNC(=S)NCC(COC(=O)C(C)(C)C)Cc2ccc(C(C)(C)C)cc2)ccc1O (stereo not drawn) [sRTX, N-{3-pivaloyloxy-2-(4-t-butylbenzyl)propyl}-N′-(4-hydroxyl-3-methoxybenzyl)thiourea] | – | – | – | – | – | – | – | – | 11 nM
